Source: patent publication US4971980A, “Pharmacologically active benzimidazole derivatives” (Dompe Farmaceutici S.p.A., priority 1988, dated 1990)

Experiments:
[1] = Acute toxicity (LD50); settings: mouse, in vivo, ip; mice, 14 days observation
Method: The Letal Dose50 (LD50) was evaluated on mice using Swiss-Nos (Nossan, Correzzana, Milano) mice weighing 18-20 g each. The animals, divided into groups of 10 animals each (5M +5F), were on an empty stomach for 18 hrs, with water ad libitum, and kept in cages with grid floor. The compounds (I) were dissolved in water or suspended in 0.5% carboxymethylcellulose and intraperitoneally administered to the animals (10 ml/kg). The mortality occured in the tested animals within the following 6 hours was noted down. At the expiry of the 6th hour, the animals were allowed to eat up to the end of the experimentation which lasted 14 days. During this period all the toxic symptoms and the mortality occuring were noted.
The animals which died during the test period and those which were sacrificed at the end of the same, underwent autopsy for a macroscopic examination of their main organs. The experimental data were statistically compared with the X^2 method and LD50 was extrapolated by the `probit` method.

[2] = biological target: T1, H1 histaminergic receptors (Rattus norvegicus, UniProt P31390); experiment: Affinity towards H1 histaminergic receptors ([3H]Mepyramine displacement); settings: homogenates of rat brain, 25° C., 15 minutes, pH 7.5, read-out: H1-receptor binding Ki
T1 construct: in homogenates of rat brain; from tissue; host or cells: rat whole brain homogenate
T1 sequence (P31390 whole entry): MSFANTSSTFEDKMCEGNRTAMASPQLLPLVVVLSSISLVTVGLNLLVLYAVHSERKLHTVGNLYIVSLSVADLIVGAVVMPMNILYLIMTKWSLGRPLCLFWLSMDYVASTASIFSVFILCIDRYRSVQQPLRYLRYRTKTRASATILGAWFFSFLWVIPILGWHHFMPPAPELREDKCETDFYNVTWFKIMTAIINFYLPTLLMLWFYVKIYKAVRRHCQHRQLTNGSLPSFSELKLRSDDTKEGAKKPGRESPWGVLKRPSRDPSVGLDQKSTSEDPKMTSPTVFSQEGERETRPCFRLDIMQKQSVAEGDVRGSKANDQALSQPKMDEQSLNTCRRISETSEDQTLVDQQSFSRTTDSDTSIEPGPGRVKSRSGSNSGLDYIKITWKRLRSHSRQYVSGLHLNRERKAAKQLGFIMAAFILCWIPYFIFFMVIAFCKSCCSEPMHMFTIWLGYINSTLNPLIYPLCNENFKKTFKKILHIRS
Method: The incubation was performed at 25° C. for 15 minutes, in a final volume of 1 ml of 50 mM Na/K phosphate buffer, pH 7.5, in the presence of […][^3 H]Mepyramine and 1.5 mg of cerebral protein.
The test compounds were dissolved in phosphate buffer or dimethylsulfoxide (DMSO), the final concentration of DMSO was 0.5%. Incubation was terminated by filtration through glass fiber GF/B filters pre-soaked with 0.1% polyethylenimine (PEI); the radioactivity trapped by filters was counted by liquid scintillation.

[3] = system: sleeping time induced by sodium pentobarbital; experiment: Effect on the sleeping time interval induced by pentobarbital; format: in vivo, male mice Swiss-Nos; set-up: key: IN: inactive at the dose of 100 mg/kg i.p; settings: mice, i.p., 30 minutes before 40 mg/kg i.p. sodium pentobarbital; ED100 = doubles the sleeping time vs control
Method: The tests were carried out on male mice Swiss-Nos (Nossan, Correzzana, Milano) weighing 20-24 g, on an empty stomach for 18 hrs, according to the method described by Turner (Screening Methods in Pharmacology, Acad. Press, pg 70,1965). The sleep was induced by intraperitoneal administration of 40 mg/kg sodium pentobarbital. The narcosis start was considered from the moment when the animal, lying on its back, lost its straightening reflex. The narcosis end was considered from the moment when the animal recovered such reflex. The carrier or the compounds under examination were intraperitoneally administered 30 minutes before the pentobarbital administration. The resulting data are expressed as sleeping time increase per cent of the treated animals in comparison with the controls.

[4] = system: mortality induced by histamine; experiment: Effect on the mortality induced by histamine; format: in vivo, male albino guinea pigs (Dunkin-Hartley); settings: Cavia porcellus, po; guinea pigs, os, 60 minutes before 1,25 mg/kg i.v. histamine dihydrochloride; parentheses: range
Method: The method described by Romer D. et al. (Med.Welt, 17, 791, 1966) was followed and the tests were carried out on male albino guinea pigs (Dunkin-Hartley), weighing 350-450 g, which were kept in cages with a grid floor, on an empty stomach for 24 hrs with water ad libitum.
The compounds under examination were dissolved in 0,5% carboxymethylcellolose and orally administered to the animals; 60 minutes later the same animals were intravenously treated with 1,25 mg/kg of histamine dihydrochloride in saline solution.
It was evaluated ED50 which corresponds to the amount of the compound able to inhibit 50% of the mortality induced by histamine: the estimation of ED50 was carried out applying the `probit` method (Finney D. J., Statistical methods in biological assay, pg 512, 1957).

Row | SMILES | LD50 at 336 h [1] | Ki [2] | sleeping time % increase ED100 [3] | ED50 [4]
1 | CCOCCn1c(CCCN(C)C)nc2ccccc21 [Example 1, 1-(2-Ethoxyethyl)-2-(3-dimethylaminopropyl)benzimidazole] | 250 mg/kg | 5.8 nM | IN | 0.00454 mg/kg
2 | CN(C)CCCc1nc2ccccc2n1Cc1ccc(F)cc1 [Example 6, 1-(4-fluorobenzyl)-2-(3-dimethylaminopropyl)benzimidazole] | > 100 mg/kg | 6.1 nM | IN | 0.026 mg/kg
3 | CCOCCn1c(CCN(C)C)nc2ccccc21 [Example 9, 1-(2-Ethoxyethyl)-2-(2-dimethylaminoethyl)benzimidazole] | > 100 mg/kg | 6.1 nM | IN | 0.00501 mg/kg
4 | CC(C)(C)c1ccc(C(O)CCCN2CCC(C(O)(c3ccccc3)c3ccccc3)CC2)cc1 (centres unmarked) [Terfenadine, reference compound] | > 100 mg/kg |  |  | 0.179 mg/kg
